Several values for one entry are separate records, joined by “and”; a condition that tells them apart may be missing. Equal values may be shown once. Toxic doses and inconclusive results are not listed.
System: P388 leukemia ip, CD2F1 mice, survival T/C
Assay: NCI In Vivo Anticancer Drug Screen. Data for tumor model P388 Leukemia (intraperitoneal) in CD2F1 (CDF1) mice
Settings: endpoint: median survival time, higher = longer survival
Procedure, shortened: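 Mice carrying the transplanted tumor received test compound or vehicle. Survival was recorded in each group, and the value is the treated-group measurement divided by that of the vehicle-treated control group.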

[1] = dose: 100.0 mg/kg/injection, schedule: Q01DX001 (ip), vehicle: saline with Tween-80
[2] = dose: 200.0 mg/kg/injection, schedule: Q01DX001 (ip), vehicle: saline with Tween-80
[3] = dose: 50.0 mg/kg/injection, schedule: Q01DX005 (ip), vehicle: Klucel (hydroxypropylcellulose) (HPC)
[4] = dose: 100.0 mg/kg/injection, schedule: Q01DX005 (ip), vehicle: Klucel (hydroxypropylcellulose) (HPC)
[5] = dose: 200.0 mg/kg/injection, schedule: Q01DX005 (ip), vehicle: Klucel (hydroxypropylcellulose) (HPC)
[6] = dose: 50.0 mg/kg/injection, schedule: Q01DX005 (ip), vehicle: saline with Tween-80
[7] = dose: 100.0 mg/kg/injection, schedule: Q01DX005 (ip), vehicle: saline with Tween-80
[8] = dose: 100.0 mg/kg/injection, schedule: Q01DX001 (ip), vehicle: Klucel (hydroxypropylcellulose) (HPC)
[9] = dose: 200.0 mg/kg/injection, schedule: Q01DX001 (ip), vehicle: Klucel (hydroxypropylcellulose) (HPC)
[10] = dose: 400.0 mg/kg/injection, schedule: Q01DX001 (ip), vehicle: Klucel (hydroxypropylcellulose) (HPC)
[11] = dose: 50.0 mg/kg/injection, schedule: Q01DX009 (ip), vehicle: Klucel (hydroxypropylcellulose) (HPC)
[12] = dose: 100.0 mg/kg/injection, schedule: Q01DX009 (ip), vehicle: Klucel (hydroxypropylcellulose) (HPC)
[13] = dose: 50.0 mg/kg/injection, schedule: Q01DX009 (ip), vehicle: saline
[14] = dose: 100.0 mg/kg/injection, schedule: Q01DX009 (ip), vehicle: saline
[15] = dose: 50.0 mg/kg/injection, schedule: Q01DX009 (ip), vehicle: saline with Tween-80
[16] = dose: 60.0 mg/kg/injection, schedule: Q01DX005 (ip), vehicle: saline with Tween-80
[17] = dose: 120.0 mg/kg/injection, schedule: Q01DX005 (ip), vehicle: saline with Tween-80
[18] = dose: 100.0 mg/kg/injection, schedule: Q01DX009 (ip), vehicle: saline with Tween-80
[19] = dose: 200.0 mg/kg/injection, schedule: Q01DX009 (ip), vehicle: saline with Tween-80

Structure (SMILES): COC(=O)NN(C(=O)OC)C1CCCC2C1c1ccc3ccccc3c1N(C(=O)OC)N2C(=O)OC (configuration not stated)
- T/C (dose: 60.0 mg/kg/injection, schedule: Q01DX005 (ip), vehicle: Klucel (hydroxypropylcellulose) (HPC)): 107 % of control
- T/C (dose: 120.0 mg/kg/injection, schedule: Q01DX005 (ip), vehicle: Klucel (hydroxypropylcellulose) (HPC)): 100 % of control
- T/C (dose: 240.0 mg/kg/injection, schedule: Q01DX005 (ip), vehicle: Klucel (hydroxypropylcellulose) (HPC)): 109 % of control

Structure (SMILES): O=C=N[Si](c1ccccc1)(c1ccccc1)c1ccccc1
- T/C [1]: 96 % of control
- T/C [2]: 89 % of control

Structure (SMILES): CCCn1c2nc(=O)[nH]c(=O)c-2[n+]([O-])c2ccccc21
- T/C (dose: 6.25 mg/kg/injection, schedule: Q01DX001 (ip), vehicle: saline with Tween-80): 97 % of control
- T/C (dose: 12.5 mg/kg/injection, schedule: Q01DX001 (ip), vehicle: saline with Tween-80): 98 % of control

Structure (SMILES): O=c1[nH]c(=O)c2[nH]c(=O)[nH]c(=O)c2[nH]1
- T/C [3]: 99 % of control
- T/C [4]: 96 % of control
- T/C [5]: 103 % of control

Structure (SMILES): COC(=O)c1cc(=O)nc(NN=C2c3ccccc3-c3ccccc32)s1
- T/C (dose: 12.5 mg/kg/injection, schedule: Q01DX005 (ip), vehicle: saline with Tween-80): 97 % of control
- T/C (dose: 25.0 mg/kg/injection, schedule: Q01DX005 (ip), vehicle: saline with Tween-80): 94 % of control
- T/C [6]: 88 % of control and 92 % of control

Structure (SMILES): CC1(c2cccc[n+]2Cc2ccc(Cl)c3ccccc23)OCCO1
- T/C (dose: 12.5 mg/kg/injection, schedule: Q01DX009 (ip), vehicle: saline): 101 % of control
- T/C (dose: 25.0 mg/kg/injection, schedule: Q01DX009 (ip), vehicle: saline): 101 % of control

Structure (SMILES): CCOC(=O)c1ccc(N=Nc2c(O)c(C(=O)OCC)c(O)c3ccccc23)cc1O
- T/C (dose: 100.0 mg/kg/injection, schedule: Q01DX001 (ip), vehicle: distilled water + alcohol): 91 % of control
- T/C (dose: 200.0 mg/kg/injection, schedule: Q01DX001 (ip), vehicle: distilled water + alcohol): 86 % of control
- T/C (dose: 400.0 mg/kg/injection, schedule: Q01DX001 (ip), vehicle: distilled water + alcohol): 86 % of control

Structure (SMILES): CN1C(=O)C(CC(=O)O)(Cc2ccccc2)N(C(=O)c2ccccc2)[C@H]1C(C)(C)C (some centres not stated)
- T/C [1]: 112 % of control
- T/C [2]: 94 % of control
- T/C (dose: 400.0 mg/kg/injection, schedule: Q01DX001 (ip), vehicle: saline with Tween-80): 108 % of control

Structure (SMILES): O=C(Nc1n[nH]c(NC(=O)c2ccc([N+](=O)[O-])cc2)n1)c1ccc([N+](=O)[O-])cc1
- T/C [3]: 93 % of control
- T/C [4]: 90 % of control
- T/C [5]: 90 % of control

Structure (SMILES): Cc1nn(C(=S)S)c(C)c1N=Nc1ccccc1Cl
- T/C [6]: 111 % of control
- T/C [7]: 117 % of control
- T/C (dose: 200.0 mg/kg/injection, schedule: Q01DX005 (ip), vehicle: saline with Tween-80): 108 % of control

Structure (SMILES): CC1(n2[nH]c(=O)n(-c3ccccc3)c2=O)Cn2c(=O)n(-c3ccccc3)c(=O)n2-c2ccccc21 (configuration not stated)
- T/C [3]: 101 % of control
- T/C [4]: 96 % of control
- T/C [5]: 108 % of control

Structure (SMILES): COC1C2OC(C)(C)OC2OC1C(C)N(C)O (configuration not stated)
- T/C [8]: 103 % of control
- T/C (dose: 100.0 mg/kg/injection, schedule: Q01DX001 (ip), vehicle: saline): 116 % of control
- T/C [9]: 106 % of control
- T/C (dose: 200.0 mg/kg/injection, schedule: Q01DX001 (ip), vehicle: saline): 104 % of control
- T/C [10]: 103 % of control
- T/C (dose: 400.0 mg/kg/injection, schedule: Q01DX001 (ip), vehicle: saline): 99 % of control

Structure (SMILES): CCCCCCCCN(C)N=Nc1ccccc1C(=O)O
- T/C (dose: 12.5 mg/kg/injection, schedule: Q01DX009 (ip), vehicle: Klucel (hydroxypropylcellulose) (HPC)): 105 % of control
- T/C (dose: 25.0 mg/kg/injection, schedule: Q01DX009 (ip), vehicle: Klucel (hydroxypropylcellulose) (HPC)): 118 % of control
- T/C [11]: 115 % of control
- T/C [12]: 108 % of control

Structure (SMILES): CC(N)CN1CC(C)N=C1c1ccncc1 (configuration not stated)
- T/C [13]: 102 % of control
- T/C [14]: 98 % of control
- T/C (dose: 200.0 mg/kg/injection, schedule: Q01DX009 (ip), vehicle: saline): 99 % of control

Structure (SMILES): O=C(CC(=O)c1ccccc1F)Nc1ccc([N+](=O)[O-])cc1
- T/C (dose: 12.5 mg/kg/injection, schedule: Q01DX009 (ip), vehicle: saline with Tween-80): 100 % of control
- T/C (dose: 25.0 mg/kg/injection, schedule: Q01DX009 (ip), vehicle: saline with Tween-80): 100 % of control
- T/C [15]: 95 % of control
- T/C (dose: 100.0 mg/kg/injection, schedule: Q04DX003 (ip), vehicle: saline with Tween-80): 90 % of control
- T/C (dose: 200.0 mg/kg/injection, schedule: Q04DX003 (ip), vehicle: saline with Tween-80): 95 % of control
- T/C (dose: 400.0 mg/kg/injection, schedule: Q04DX003 (ip), vehicle: saline with Tween-80): 100 % of control

Structure (SMILES): CCOC(=O)c1cnc2c(C(F)(F)F)cccc2c1Nc1ccc2c(c1)OCO2
- T/C (dose: 60.0 mg/kg/injection, schedule: Q01DX005 (ip), vehicle: Klucel + Tween-80): 100 % of control
- T/C (dose: 120.0 mg/kg/injection, schedule: Q01DX005 (ip), vehicle: Klucel + Tween-80): 103 % of control
- T/C (dose: 240.0 mg/kg/injection, schedule: Q01DX005 (ip), vehicle: Klucel + Tween-80): 97 % of control

Structure (SMILES): CC(=O)OCC1OC(CCC#N)C(OC(C)=O)C(OC(C)=O)C1OC(C)=O (configuration not stated)
- T/C [16]: 102 % of control and 100 % of control
- T/C (dose: 60.0 mg/kg/injection, schedule: Q01DX005 (ip), vehicle: saline): 102 % of control
- T/C [17]: 98 % of control and 108 % of control
- T/C (dose: 120.0 mg/kg/injection, schedule: Q01DX005 (ip), vehicle: saline): 101 % of control
- T/C (dose: 240.0 mg/kg/injection, schedule: Q01DX005 (ip), vehicle: saline with Tween-80): 100 % of control and 102 % of control
- T/C (dose: 240.0 mg/kg/injection, schedule: Q01DX005 (ip), vehicle: saline): 101 % of control

Structure (SMILES): CCOC(=O)/N=[N+](\[O-])c1cccc(Cl)c1
- T/C [1]: 110 % of control
- T/C [2]: 102 % of control

Structure (SMILES): C(=C1/SC(c2ccccc2)=NC1c1ccccc1)/c1ccccc1 (configuration not stated)
- T/C [15]: 92 % of control
- T/C [18]: 88 % of control
- T/C [19]: 96 % of control

Structure (SMILES): CCC1COC(CC)N1 (configuration not stated)
- T/C [6]: 113 % of control and 95 % of control
- T/C [7]: 103 % of control

Structure (SMILES): COC(=O)C1Cc2c([nH]c3ccccc23)C2CCC(=O)N12 (configuration not stated)
- T/C [11]: 108 % of control
- T/C [12]: 100 % of control
- T/C (dose: 200.0 mg/kg/injection, schedule: Q01DX009 (ip), vehicle: Klucel (hydroxypropylcellulose) (HPC)): 104 % of control

Structure (SMILES): OC1CC2CCCCC2CC1C1CCCCC1 (configuration not stated)
- T/C [8]: 90 % of control
- T/C [9]: 91 % of control
- T/C [10]: 94 % of control

Structure (SMILES): CC(=O)C(=Cc1ccc(C=C(C(C)=O)C(C)=O)cc1)C(C)=O
- T/C [16]: 114 % of control
- T/C [17]: 111 % of control

Structure (SMILES): COc1ccc2c(N=[N+]=[N-])ccnc2c1
- T/C [16]: 89 % of control
- T/C [17]: 89 % of control

Structure (SMILES): O=C1NC(=O)C(C23CCN(CC2)CC3)N1 (configuration not stated)
- T/C (dose: 100.0 mg/kg/injection, schedule: Q04DX003 (ip), vehicle: saline): 101 % of control
- T/C (dose: 200.0 mg/kg/injection, schedule: Q04DX003 (ip), vehicle: saline): 100 % of control
- T/C (dose: 400.0 mg/kg/injection, schedule: Q04DX003 (ip), vehicle: saline): 107 % of control

Structure (SMILES): Oc1ccccc1CNc1ncc(Cl)cc1Cl
- T/C [15]: 100 % of control
- T/C [18]: 88 % of control
- T/C [19]: 94 % of control

Structure (SMILES): CCN(CC)CCOC(=O)C(OCC(C)C)(c1ccccc1)c1ccccc1
- T/C [3]: 110 % of control
- T/C [4]: 108 % of control

Structure (SMILES): COc1ccc(C(=O)C(C)Sc2ccccc2)cc1OC (configuration not stated)
- T/C (dose: 10.0 mg/kg/injection, schedule: Q01DX005 (ip), vehicle: Klucel (hydroxypropylcellulose) (HPC)): 108 % of control
- T/C (dose: 20.0 mg/kg/injection, schedule: Q01DX005 (ip), vehicle: Klucel (hydroxypropylcellulose) (HPC)): 105 % of control
- T/C (dose: 40.0 mg/kg/injection, schedule: Q01DX005 (ip), vehicle: Klucel (hydroxypropylcellulose) (HPC)): 101 % of control

Structure (SMILES): COC(=O)C(C)n1c(C)csc1=S (configuration not stated)
- T/C [6]: 103 % of control
- T/C [7]: 98 % of control

Structure (SMILES): CCCCC#CC(=O)O
- T/C [13]: 103 % of control
- T/C [14]: 94 % of control

Structure (SMILES): CCN(CC)Cc1c(C)[nH]c2ccccc2c1=O
- T/C [15]: 109 % of control
- T/C [18]: 118 % of control
